Experimental data as given in patent US20230295157A1, “3-(1H-IMIDAZOL-2-YL)-2,3,8,8A-TETRAHYDROINDOLIZIN-5(1H)-ONE DERIVATIVES USEFUL AS FACTOR XIA INHIBITORS” (JANSSEN PHARMACEUTICA NV, priority 2020, published 2023).
Where two headings read alike, the source gives them in different places.

Legend:
human plasma kallikrein = human plasma kallikrein (Homo sapiens (Human), UniProt P03952); experiment: Kallikrein inhibition assay (FLINT) utilizing a quenched AMC peptide substrate; assay type: biochemical; conditions: 30 min preincubation, read-out: Kallikrein Kin Inh IC50
human plasma kallikrein, sequence (P03952 391-638): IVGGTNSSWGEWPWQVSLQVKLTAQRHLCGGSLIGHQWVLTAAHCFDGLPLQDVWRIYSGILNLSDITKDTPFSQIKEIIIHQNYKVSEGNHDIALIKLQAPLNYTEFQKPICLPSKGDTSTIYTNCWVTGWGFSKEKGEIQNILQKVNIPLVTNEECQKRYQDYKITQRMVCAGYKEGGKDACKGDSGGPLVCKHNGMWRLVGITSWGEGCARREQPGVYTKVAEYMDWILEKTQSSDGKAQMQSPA
human plasma kallikrein, sequence (P03952 20-390 partner): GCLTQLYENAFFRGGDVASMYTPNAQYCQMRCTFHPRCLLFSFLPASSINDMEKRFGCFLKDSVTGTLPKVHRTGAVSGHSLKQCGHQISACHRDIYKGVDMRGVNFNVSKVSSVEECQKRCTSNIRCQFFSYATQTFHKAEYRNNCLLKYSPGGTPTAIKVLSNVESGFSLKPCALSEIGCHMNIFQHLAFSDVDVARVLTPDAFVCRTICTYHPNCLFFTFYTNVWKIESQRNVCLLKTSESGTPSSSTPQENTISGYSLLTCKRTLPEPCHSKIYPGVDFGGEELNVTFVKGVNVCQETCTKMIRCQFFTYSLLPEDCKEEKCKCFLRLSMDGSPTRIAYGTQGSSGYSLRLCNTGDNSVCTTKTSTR
Outline: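 Enzyme (2 nM final) pre-incubated 30 min at room temperature with compound (11-point, 3-fold, top 1 μM, 2% DMSO), then 50 μM Z-Gly-Pro-Arg-AMC added in Tris pH 7.5 buffer. Kinetic fluorescence 340/440 nm every 5 min over 30 min; IC50 from 4-parameter logistic fit.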

Factor XIa = Factor XIa (Homo sapiens (Human), UniProt P03951); experiment: Factor XIa inhibition assay (FLINT) utilizing a fluorophore-quencher pair peptide substrate; assay type: biochemical; conditions: 30 min preincubation, kinetic reads over 30 min, read-out: FXIa Kin Inh IC50
Factor XIa, sequence (P03951 388-625): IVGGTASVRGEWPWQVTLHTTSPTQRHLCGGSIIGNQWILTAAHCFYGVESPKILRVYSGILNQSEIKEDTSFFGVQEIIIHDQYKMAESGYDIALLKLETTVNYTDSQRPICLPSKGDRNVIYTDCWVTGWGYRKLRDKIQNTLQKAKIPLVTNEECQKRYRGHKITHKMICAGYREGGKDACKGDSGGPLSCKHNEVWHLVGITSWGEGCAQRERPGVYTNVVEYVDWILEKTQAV
Factor XIa, sequence (P03951 19-387 partner): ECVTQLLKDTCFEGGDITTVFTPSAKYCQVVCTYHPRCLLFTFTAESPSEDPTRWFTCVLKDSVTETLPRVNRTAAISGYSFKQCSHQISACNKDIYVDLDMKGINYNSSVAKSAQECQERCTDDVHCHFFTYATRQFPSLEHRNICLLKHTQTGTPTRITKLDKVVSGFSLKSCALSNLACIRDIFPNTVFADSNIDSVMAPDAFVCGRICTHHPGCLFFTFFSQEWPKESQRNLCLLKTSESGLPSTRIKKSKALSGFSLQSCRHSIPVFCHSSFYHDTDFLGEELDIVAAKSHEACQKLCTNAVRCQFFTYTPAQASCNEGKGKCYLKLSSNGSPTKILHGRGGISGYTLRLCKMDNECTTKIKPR
Outline: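 FXIa ([…]) preincubated 30 min with compound (11-point 3-fold dilution, top 100 nM, 2% DMSO), then 15 μM quenched FXI Arg146-based peptide added; Tris pH 7.5, CaCl2, BSA, CHAPS. Fluorescence 485/520 nm read kinetically every 5 min over 30 min at RT; IC50 by 4-parameter fit.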

[1] = kinetic reads over 30 min, Z-Gly-Pro-Arg-AMC substrate 50 μM
[2] = 5Fam-KLTRAETV-K5Tamra substrate 15 μM
[3] = 5Fam-[…]-K5Tamra substrate 15 μM

| Structure (SMILES) | IC50 (human plasma kallikrein; [1]) | IC50 (Factor XIa; [2]) | IC50 (Factor XIa; [3]) | IC50 (human plasma kallikrein; μM, kinetic reads) |
| --- | --- | --- | --- | --- |
| O=C1C=C(c2cc(Cl)ccc2-n2cnnn2)C(F)(F)C2CC[C@@H](c3ncc(-c4ccnc(CO)c4F)[nH]3)N12 (stereo partly drawn) [Example 56, (3S)-7-(5-chloro-2-(1H-tetrazol-1-yl)phenyl)-8,8-difluoro-3-(5-(3-fluoro-2-(hydroxymethyl)pyridin-4-yl)-1H-imidazol-2-yl)-2,3,8,8a-tetrahydroindolizin-5(1H)-one] | 0.0592 µM | 35.2 nM | – | – |
| CS(=O)(=O)Nc1cc(-c2cnc(C3CCC4CC(c5c(-n6cnnn6)ccc(Cl)c5F)=CC(=O)N43)[nH]2)ccn1 (stereo not drawn) [Example 7, N-[4-[2-[7-[3-Chloro-2-fluoro-6-(tetrazol-1-yl)phenyl]-5-oxo-2,3,8,8a-tetrahydro-1H-indolizin-3-yl]-1H-imidazol-5-yl]-2-pyridyl]methanesulfonamide] | 0.0701 µM | 6.4 nM | – | – |
| Cn1cc(-c2ccccc2NC(=O)C2CC2)nc1[C@@H]1CC[C@H]2CC(c3c(-n4cnnn4)ccc(Cl)c3F)=CC(=O)N21 (relative stereo) [Example 304, N-(2-(2-((3S,8aS*)-7-(3-Chloro-2-fluoro-6-(1H-tetrazol-1-yl)phenyl)-5-oxo-1,2,3,5,8,8a-hexahydroindolizin-3-yl)-1-methyl-1H-imidazol-4-yl)phenyl)cyclopropanecarboxamide] | 0.323 µM | – | > 100 nM | – |
| O=C1C=C(c2c(-n3cnnn3)ccc(Cl)c2F)C[C@H]2CC[C@@H](c3nc(-c4cnc5[nH]ncc5c4)c[nH]3)N12 [Example 41, (3S,8aR)-3-(4-(1H-pyrazolo[3,4-b]pyridin-5-yl)-1H-imidazol-2-yl)-7-(3-chloro-2-fluoro-6-(1H-tetrazol-1-yl)phenyl)-2,3,8,8a-tetrahydroindolizin-5(1H)-one] | 0.0542 µM | 44.7 nM | – | – |
| Nc1ccncc1-c1c[nH]c([C@@H]2CC[C@H]3CC(c4c(-n5cnnn5)ccc(Cl)c4F)=CC(=O)N32)n1 [Example 272, (3S,8aS)-3-(4-(4-Aminopyridin-3-yl)-1H-imidazol-2-yl)-7-(3-chloro-2-fluoro-6-(1H-tetrazol-1-yl)phenyl)-2,3,8,8a-tetrahydroindolizin-5(1H)-one] | – | > 100 nM | – | > 1 µM |
| [2H][C@]12CC[C@@H](c3ncc(-c4ccnc(CO)c4F)[nH]3)N1C(=O)C=C(c1c(-n3cnnn3)ccc(Cl)c1F)C2 (relative stereo) [Example 47, (3S,8aR*)-7-(3-Chloro-2-fluoro-6-(1H-tetrazol-1-yl)phenyl)-3-(5-(3-fluoro-2-(hydroxymethyl)pyridin-4-yl)-1H-imidazol-2-yl)-2,3,8,8a-tetrahydroindolizin-5(1H)-one-8a-d] | 0.0426 µM | – | 5.7 nM | – |
| CC(C)[C@H](N)C(=O)OCc1nccc(-c2cnc([C@@H]3CC[C@@H]4CC(c5c(-n6cnnn6)ccc(Cl)c5F)=CC(=O)N43)[nH]2)c1F [Example 75, [4-[2-[(3S,8aR)-7-[3-chloro-2-fluoro-6-(tetrazol-1-yl)phenyl]-5-oxo-2,3,8,8a-tetrahydro-1H-indolizin-3-yl]-1H-imidazol-5-yl]-3-fluoro-2-pyridyl]methyl (2S)-2-amino-3-methyl-butanoate] | 0.0383 µM | 4.3 nM | – | – |
| Cc1nc([C@@H]2CC[C@@H]3CC(c4c(-n5cnnn5)ccc(Cl)c4F)=CC(=O)N32)[nH]c1-c1ccnc(CO)c1F (single isomer, unassigned) [Example 35] | 0.245 µM | – | 60.1 nM | – |
| O=C1C=C(c2c(-n3cnnn3)ccc(Cl)c2F)C[C@H]2CC[C@H](c3ncc(-c4ccnc(COCP(=O)(O)O)c4F)[nH]3)N12 (relative stereo) [Example 37, (((4-(24(3R*,8aR)-7-(3-chloro-2-fluoro-6-(1H-tetrazol-1-yl)phenyl)-5-oxo-1,2,3,5,8,8a-hexahydroindolizin-3-yl)-1H-imidazol-5-yl)-3-fluoropyridin-2-yl)methoxy)methyl)phosphonic acid] | 0.0558 µM | – | 1.3 nM | – |

The remaining lines, values ahead:

| IC50 (human plasma kallikrein; [1]) | IC50 (Factor XIa; [2]) | IC50 (Factor XIa; [3]) | IC50 (human plasma kallikrein; μM, kinetic reads) | Structure (SMILES) |
| --- | --- | --- | --- | --- |
| 0.008 µM | 0.5 nM | – | – | O=C1C=C(c2c(-n3cnnn3)ccc(Cl)c2F)C[C@H]2CC[C@@H](c3ncc(-c4c[nH]nc4Cl)[nH]3)N12 (single isomer, unassigned) [Example 224] |
| 0.0351 µM | 4.6 nM | – | – | C[C@H](O)c1nccc(-c2cnc([C@@H]3CC[C@@H]4CC(c5c(-n6cnnn6)ccc(Cl)c5F)=CC(=O)N43)[nH]2)c1F [Example 186, (3S,8aR)-7-(3-chloro-2-fluoro-6-(1H-tetrazol-1-yl)phenyl)-3-(5-(3-fluoro-2-((S)-1-hydroxyethyl)pyridin-4-yl)-1H-imidazol-2-yl)-2,3,8,8a-tetrahydroindolizin-5(1H)-one] |
| 0.0004 µM | 0.2 nM | – | – | O=C1C=C(c2c(-n3cnnn3)ccc(Cl)c2F)C[C@@H]2CC[C@@H](c3ncc(-c4ccc5[nH]c(=O)ccc5c4)[nH]3)N12 [Example 270, 6-[2-[(3S,8aS)-7-[3-Chloro-2-fluoro-6-(tetrazol-1-yl)phenyl]-5-oxo-2,3,8,8a-tetrahydro-1H-indolizin-3-yl]-1H-imidazol-5-yl]-1H-quinolin-2-one] |
| 0.0014 µM | 0.2 nM | – | – | COC(=O)Nc1ccc(-c2cnc([C@@H]3CCC4CC(c5c(-n6cnnn6)ccc(Cl)c5F)=CC(=O)N43)[nH]2)cc1 (stereo partly drawn) [Example 355, Methyl (4-(2-((3S)-7-(3-chloro-2-fluoro-6-(1H-tetrazol-1-yl)phenyl)-5-oxo-1,2,3,5,8,8a-hexahydroindolizin-3-yl)-1H-imidazol-5-yl)phenyl)carbamate] |
| 0.0018 µM | 0.7 nM | – | – | O=C1CCc2cc(-c3[nH]c([C@@H]4CC[C@@H]5CC(c6cc(Cl)ccc6-n6cc(C(F)(F)F)nn6)=CC(=O)N54)nc3F)ccc2N1 [Example 81, 6-[2-[(3S,8aR)-7-[5-chloro-2-[4-(trifluoromethyl)triazol-1-yl]phenyl]-5-oxo-2,3,8,8a-tetrahydro-1H-indolizin-3-yl]-4-fluoro-1H-imidazol-5-yl]-3,4-dihydro-1H-quinolin-2-one] |
| 0.0355 µM | – | 5.4 nM | – | C[C@H](O)c1nccc(-c2[nH]c([C@@H]3CC[C@@H]4CC(c5cc(Cl)ccc5-n5cnnn5)=CC(=O)N43)nc2F)c1F (relative stereo) [Example 46, (3S,8aR)-7-(5-chloro-2-(1H-tetrazol-1-yl)phenyl)-3-(4-fluoro-5-(3-fluoro-2-((S*)-1-hydroxyethyl)pyridin-4-yl)-1H-imidazol-2-yl)-2,3,8,8a-tetrahydroindolizin-5(1H)-one] |
| 0.0259 µM | – | 55 nM | – | O=C1C=C(c2c(-n3cnnn3)ccc(Cl)c2F)CC2CCC(c3nc(-c4cccc(-c5ccn[nH]5)n4)c(F)[nH]3)N12 (single isomer, unassigned) [Example 66, (3S*)-3-(4-(6-(1H-pyrazol-5-yl)pyridin-2-yl)-5-fluoro-1H-imidazol-2-yl)-7-(3-chloro-2-fluoro-6-(1H-tetrazol-1-yl)phenyl)-2,3,8,8a-tetrahydroindolizin-5(1H)-one] |
| 0.0227 µM | – | 5.7 nM | – | CC1(C)C[C@@H](c2ncc(-c3ccc(N)nc3Cl)[nH]2)N2C(=O)C=C(c3c(-n4cnnn4)ccc(Cl)c3F)C[C@@H]21 (relative stereo) [Example 335, (3S,8aR)-3-(5-(6-Amino-2-chloropyridin-3-yl)-1H-imidazol-2-yl)-7-(3-chloro-2-fluoro-6-(1H-tetrazol-1-yl)phenyl)-1,1-dimethyl-2,3,8,8a-tetrahydroindolizin-5(1H)-one] |
| 0.029 µM | 3 nM | – | – | O=C1C=C(c2c(-n3cnnn3)ccc(Cl)c2F)C[C@H]2CC[C@@H](c3ncc(-c4ccncc4F)[nH]3)N12 [Example 17, (3S,8aR)-7-[3-Chloro-2-fluoro-6-(tetrazol-1-yl)phenyl]-3-[5-(3-fluoro-4-pyridyl)-1H-imidazol-2-yl]-2,3,8,8a-tetrahydro-1H-indolizin-5-one] |
| 0.0244 µM | 4.4 nM | – | – | O=C1C=C(c2c(-n3cc(Cl)nn3)ccc(Cl)c2F)C[C@H]2CC[C@@H](c3nc(-c4cc[nH]c(=O)c4F)c[nH]3)N12 [Example 200, (3S,8aR)-7-(3-chloro-6-(4-chloro-1H-1,2,3-triazol-1-yl)-2-fluorophenyl)-3-(4-(3-fluoro-2-oxo-1,2-dihydropyridin-4-yl)-1H-imidazol-2-yl)-2,3,8,8a-tetrahydroindolizin-5(1H)-one] |
| 0.0056 µM | 0.6 nM | – | – | CC1(C)C[C@@H](c2ncc(-c3ccc(N)nc3Cl)[nH]2)N2C(=O)C=C(c3c(-n4cnnn4)ccc(Cl)c3F)CC21 (stereo partly drawn) [Example 349, (3S)-3-(5-(6-Amino-2-chloropyridin-3-yl)-1H-imidazol-2-yl)-7-(3-chloro-2-fluoro-6-(1H-tetrazol-1-yl)phenyl)-1,1-dimethyl-2,3,8,8a-tetrahydroindolizin-5(1H)-one] |
| 0.0007 µM | – | 0.2 nM | – | O=C(Nc1cnccc1-c1c[nH]c([C@@H]2CC[C@H]3CC(c4c(-n5cnnn5)ccc(Cl)c4F)=CC(=O)N32)n1)C1CC1 (relative stereo) [Example 250, N-(4-(24(3S,8aS*)-7-(3-choro-2-fluoro-6-(1H-tetrazol-1-yl)phenyl)-5-oxo-1,2,3,5,8,8a-hexahydroindolizin-3-yl)-1H-imidazol-4-yl)pyridin-3-yl)cyclopropanecarboxamide] |
